Assay results published in patent US4178371A, “Tetrapeptide derivatives” (Reckitt & Colman Products Limited, priority 1977, dated 1979).

Legend:
[1] = system: mouse; test: mouse phenyl-quinone anti writhing test of Hendershot et al (H & F); format: in vivo; details: i.v.
From the text: (§1) J. Pharmacol, and Chemotherapy 33. 266-276 (1968). […] 13, 266 (1963).

[2] = system: opiate receptor sites; details: isolated guinea pig ileum twitch response, dose response curve compared with Met enkephalin
From the text: The test used for the detection of their agonist activity at opiate receptor sites is that employing the transmurally stimulates guinea pig ileum preparation described in Kosterlitz et al., Brit. J. Pharmacol, and Chemotherapy 33. 266-276 (1968). […] Exp. Ther. 125, 237 (1959) and by the rat tail flick test (intravenous administration) according to Jansen et al., Arzneim Forsch. 13, 266 (1963).
In the above mentioned test method of Kosterlitz et al male or female guinea pigs (Duncan Hartley strain) are killed by a blow on the head and a portion of the ileum removed and set up in an isolated organ bath of 50 ml volume. A `twitch` response is produced by low frequency (0.1 Hz) stimulation with 0.5 msec rectilinear pulses. A test compound is dissolved in distilled water to produce a stock solution of concentration 1 mg/ml. Serial dilutions are carried out using Krebs solution to produce concentrations of 10 μg, 1 μg and 0.1 μg/ml. The compound is tested by adding between 0.1-0.3 ml of the solutions to the organ bath. A dose response curve is then drawn and compared with that for Met enkephalin.

[3] = system: rat; test: rat tail flick test (R.T.F.), intravenous administration; format: in vivo; details: hot water 55° as nociceptive stimulus, i.v.
Procedure: as §1
In the rat tail flick test hot water (maintained at 55°±1°C.) is used as the nociceptive stimulus.

For `CC(=O)NCCNC(=O)[C@H](Cc1ccccc1)NC(=O)CNC(=O)[C@@H](C)NC(=O)[C@@H](N)Cc1ccc(O)cc1` [Example 1, L-Tyrosyl-D-alanylglycyl-L-phenylalanin-2-acetamidoethylamide], the “H & F ED50” value [1] was 0.01 mg/kg and the “G.P.I. Potency (X Met enkephalin)” value [2] was 2.6 X Met enkephalin.
`C[C@@H](NC(=O)[C@@H](N)Cc1ccc(O)cc1)C(=O)NCC(=O)N(C)[C@@H](Cc1ccccc1)C(=O)NCCCN(C)C` [Example 2, L-Tyrosyl-D-alanylglycyl-N-methyl-L-phenylalanine-3-dimethylaminopropylamide] was tested, and the “H & F ED50” value [1] was 0.28 mg/kg, the “G.P.I. Potency (X Met enkephalin)” value [2] was 7.2 X Met enkephalin and the “R.T.F. ED50” value [3] was 2.0 mg/kg.
In the case of `C[C@@H](NC(=O)[C@@H](N)Cc1ccc(O)cc1)C(=O)NCC(=O)N(C)[C@@H](Cc1ccccc1)C(=O)NCCN(C)C` [Example 4, L-Tyrosyl-D-alanylglycyl-N-methyl-L-phenylalanine-2-dimethylaminoethylamide], the “H & F ED50” value [1] is reported as 0.003 mg/kg, the “G.P.I. Potency (X Met enkephalin)” value [2] is reported as 8.5 X Met enkephalin and the “R.T.F. ED50” value [3] is reported as 1.4 mg/kg.
In the case of `C[C@@H](NC(=O)[C@@H](N)Cc1ccc(O)cc1)C(=O)NCC(=O)N(C)[C@@H](Cc1ccccc1)C(=O)NCCN` [Example 6, L-Tyrosyl-D-alanylglycyl-N-methyl-L-phenylalanine-2-aminoethylamide], the “H & F ED50” value [1] is reported as 0.028 mg/kg, the “G.P.I. Potency (X Met enkephalin)” value [2] is reported as 13.0 X Met enkephalin and the “R.T.F. ED50” value [3] is reported as 0.37 mg/kg.
With `C[C@@H](NC(=O)[C@@H](N)Cc1ccc(O)cc1)C(=O)NCC(=O)N(C)[C@@H](Cc1ccccc1)C(=O)NCCCC(=O)N(C)c1ccccc1` [Example 19, HTyrDAlaGlyMePheNH(CH2)3 CONMePh] the “G.P.I. Potency (X Met enkephalin)” value [2] was 23.2 X Met enkephalin.
With `C[C@@H](NC(=O)[C@@H](N)Cc1ccc(O)cc1)C(=O)NCC(=O)N(C)[C@@H](Cc1ccccc1)C(=O)NCC[N+](C)(C)[O-]` [Example 22, HTyrDAlaGlyMePheNH(CH 2)2 N(O)Me2] the “G.P.I. Potency (X Met enkephalin)” value [2] was 6.5 X Met enkephalin.
